Test results reported in patent US11834678B2, “Hematopoietic stem cells with improved properties” (Yeda Research and Development Co. Ltd., priority 2017, dated 2023).

What was measured:
[1] = system: HSPCs; test: HSPC levels in bone marrow after 6 days of NAC injections (FACS); type: in vivo; conditions: CD74−/− mice; NAC 50 mg/kg i.p. for 6 days; compared to WT levels
Description: FIGS. 8A-L illustrate that CD74 regulates stem cell retention. (FIGS. 8A-C) FACS staining of HSPCs from WT and CD74^−/− mice for Ki-67. Results are represented as: (FIG. 8A) Percentage of Ki-67^+ from CD34^−LSK and percentage of Ki-67^+ from CD34^+ LSK, (FIG. 8B) percentage of CD34−LSK Ki-67− and CD34−LSK Ki-67+ from total BM cells and (FIG. 8C) percentage of CD34^+ LSK Ki-67^− and CD34^+ LSK Ki-67^+ from total BM cells, n=15. (FIGS. 8D-E) Mice were fed with 0.8 mg/ml BrdU in the drinking water for 3 days and BrdU incorporation was analyzed by FACS. Results are represented as: (FIG. 8D) % BrdU^+ in LSK; (FIG. 8E) percentage of LSK BrdU^− and percentage of LSK BrdU^+ from total BM cells, n=12-14. (FIG. 8F-G) FACS staining of HSPCs from WT and CD74^−/− mice for ROS. Results are represented as number of ROS high in million cells, n=9. (FIGS. 8H-I) percentage of HSPCs after 6 days of NAC injections mg/ml, n=5. (FIG. 8J) FACS staining of HSPCs from WT and CD74^−/− mice for Annexin V, n=10-12, and after 24 hours in hypoxia (FIG. 8K), n=4-5. (FIG. 8L) Ratio of Annexin V+CD74^−/− to WT of HSPCs in hypoxia and normoxic conditions. Bars show SEM. Unpaired t-test two tailed *<0.05 **<0.01.
Electron transfer along the mitochondrial respiration chain induces the formation of ROS (Kobayashi and Suda, 2012). […]

[2] = system: HSPC; conditions: after a single injection; cited from earlier work

| Compound | levels of HSPCs [1] | time to mobilization of HSPC [2] |
| --- | --- | --- |
| CC(=O)N[C@@H](CS)C(=O)O [NAC, N-acetyl-L-cystein] | partially reduced | – |
| Zymosan | – | ≤ 1 h |
